{"source": "PubChem BioAssay AID2060901", "about": "(Molecular Pharmacology Branch, DTP, NCI, 2025);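 also: spheroids exposed to compounds for 7 days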;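 as to viability, T/C: 100% = DMSO vehicle control viability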", "test_system": "422866-222-R5-J1-PDC complex spheroids viability", "assay": "Anticancer human tumor 422866-222-R5-J1-PDC patient-derived pancreatic adenocarcinoma cell line growth inhibition [RAS]", "conditions": "for IC50: curve of first compound; for viability, T/C: stronger effect = lower value", "summary_of_the_method": "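Agents were tested in combination matrices in half-log decrements from a top concentration at or near clinical Cmax (10 microM if undetermined). Targets were multi-cell spheroids of tumour lines plus HUVEC and MSC stromal cells.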", "data": [{"smiles": "NC1c2ccccc2OC12CCN(c1cnc3c(N4CCCc5ncccc54)n[nH]c3n1)CC2", "note": "(centres undefined) + CCn1c(-c2cc(N3CCN(C)CC3)cnc2C(C)OC)c2c3cc(ccc31)-c1csc(n1)CC(NC(=O)C1CC1C)C(=O)N1CCCC(N1)C(=O)OCC(C)(C)C2", "values": [{"measurement": "IC50", "setting": "second compound 0.000949 µM", "value": "< 31.6", "unit": "nM"}, {"measurement": "IC50", "setting": "second compound 0.003 µM", "value": "< 31.6", "unit": "nM"}, {"measurement": "IC50", "setting": "second compound 0.00949 µM", "value": "< 31.6", "unit": "nM"}, {"measurement": "IC50", "setting": "second compound 0.03 µM", "value": "< 31.6", "unit": "nM"}, {"measurement": "IC50", "setting": "second compound 0.0949 µM", "value": "< 31.6", "unit": "nM"}, {"measurement": "IC50", "setting": "second compound 0.3 µM", "value": "< 31.6", "unit": "nM"}, {"measurement": "viability, T/C", "setting": "second compound 0.000949 µM, first compound 0.0316 µM", "value": 20.1, "unit": "%"}, {"measurement": "viability, T/C", "setting": "second compound 0.000949 µM, first compound 0.1 µM", "value": 18.4, "unit": "%"}, {"measurement": "viability, T/C", "setting": "second compound 0.000949 µM, first compound 0.316 µM", "value": 14.1, "unit": "%"}, {"measurement": "viability, T/C", "setting": "second compound 0.000949 µM, first compound 1 µM", "value": 16.4, "unit": "%"}, {"measurement": "viability, T/C", "setting": "second compound 0.000949 µM, first compound 3.16 µM", "value": 18.4, "unit": "%"}, {"measurement": "viability, T/C", "setting": "second compound 0.000949 µM, first compound 10 µM", "value": 18.5, "unit": "%"}, {"measurement": "viability, T/C", "setting": "second compound 0.003 µM, first compound 0.0316 µM", "value": 19.2, "unit": "%"}, {"measurement": "viability, T/C", "setting": "second compound 0.003 µM, first compound 0.1 µM", "value": 15.6, "unit": "%"}, {"measurement": "viability, T/C", "setting": "second compound 0.003 µM, first compound 0.316 µM", "value": 14.8, "unit": "%"}, {"measurement": "viability, T/C", "setting": "second compound 0.003 µM, first compound 1 µM", "value": 16.3, "unit": "%"}, {"measurement": "viability, T/C", "setting": "second compound 0.003 µM, first compound 3.16 µM", "value": 17.4, "unit": "%"}, {"measurement": "viability, T/C", "setting": "second compound 0.003 µM, first compound 10 µM", "value": 19.8, "unit": "%"}, {"measurement": "viability, T/C", "setting": "second compound 0.00949 µM, first compound 0.0316 µM", "value": 16.1, "unit": "%"}, {"measurement": "viability, T/C", "setting": "second compound 0.00949 µM, first compound 0.1 µM", "value": 15.2, "unit": "%"}, {"measurement": "viability, T/C", "setting": "second compound 0.00949 µM, first compound 0.316 µM", "value": 14.6, "unit": "%"}, {"measurement": "viability, T/C", "setting": "second compound 0.00949 µM, first compound 1 µM", "value": 14.7, "unit": "%"}, {"measurement": "viability, T/C", "setting": "second compound 0.00949 µM, first compound 3.16 µM", "value": 18.5, "unit": "%"}, {"measurement": "viability, T/C", "setting": "second compound 0.00949 µM, first compound 10 µM", "value": 16.5, "unit": "%"}, {"measurement": "viability, T/C", "setting": "second compound 0.03 µM, first compound 0.0316 µM", "value": 17.2, "unit": "%"}, {"measurement": "viability, T/C", "setting": "second compound 0.03 µM, first compound 0.1 µM", "value": 16.4, "unit": "%"}, {"measurement": "viability, T/C", "setting": "second compound 0.03 µM, first compound 0.316 µM", "value": 16.7, "unit": "%"}, {"measurement": "viability, T/C", "setting": "second compound 0.03 µM, first compound 1 µM", "value": 16.8, "unit": "%"}, {"measurement": "viability, T/C", "setting": "second compound 0.03 µM, first compound 3.16 µM", "value": 18.2, "unit": "%"}, {"measurement": "viability, T/C", "setting": "second compound 0.03 µM, first compound 10 µM", "value": 17.9, "unit": "%"}, {"measurement": "viability, T/C", "setting": "second compound 0.0949 µM, first compound 0.0316 µM", "value": 17.5, "unit": "%"}, {"measurement": "viability, T/C", "setting": "second compound 0.0949 µM, first compound 0.1 µM", "value": 18.4, "unit": "%"}, {"measurement": "viability, T/C", "setting": "second compound 0.0949 µM, first compound 0.316 µM", "value": 16.9, "unit": "%"}, {"measurement": "viability, T/C", "setting": "second compound 0.0949 µM, first compound 1 µM", "value": 19.2, "unit": "%"}, {"measurement": "viability, T/C", "setting": "second compound 0.0949 µM, first compound 3.16 µM", "value": 18.5, "unit": "%"}, {"measurement": "viability, T/C", "setting": "second compound 0.0949 µM, first compound 10 µM", "value": 18.9, "unit": "%"}, {"measurement": "viability, T/C", "setting": "second compound 0.3 µM, first compound 0.0316 µM", "value": 18.6, "unit": "%"}, {"measurement": "viability, T/C", "setting": "second compound 0.3 µM, first compound 0.1 µM", "value": 19, "unit": "%"}, {"measurement": "viability, T/C", "setting": "second compound 0.3 µM, first compound 0.316 µM", "value": 20.5, "unit": "%"}, {"measurement": "viability, T/C", "setting": "second compound 0.3 µM, first compound 1 µM", "value": 19.2, "unit": "%"}, {"measurement": "viability, T/C", "setting": "second compound 0.3 µM, first compound 3.16 µM", "value": 19.8, "unit": "%"}, {"measurement": "viability, T/C", "setting": "second compound 0.3 µM, first compound 10 µM", "value": 22.7, "unit": "%"}]}, {"smiles": "C=CC(=O)Nc1cc(Nc2nccc(-c3cn(C)c4ccccc34)n2)c(OC)cc1N(C)CCN(C)C", "note": "+ C#Cc1c(F)ccc2cc(O)cc(-c3ncc4c(N5CC6CCC(C5)N6)nc(OCC56CCCN5CC(F)C6)nc4c3F)c12", "values": [{"measurement": "IC50", "setting": "second compound 0.0316 µM", "value": "> 1000", "unit": "nM"}, {"measurement": "IC50", "setting": "second compound 0.1 µM", "value": "> 1000", "unit": "nM"}, {"measurement": "IC50", "setting": "second compound 0.316 µM", "value": 94.2, "unit": "nM"}, {"measurement": "IC50", "setting": "second compound 1 µM", "value": "< 3.16", "unit": "nM"}, {"measurement": "IC50", "setting": "second compound 3.16 µM", "value": "< 3.16", "unit": "nM"}, {"measurement": "IC50", "setting": "second compound 10 µM", "value": "< 3.16", "unit": "nM"}, {"measurement": "viability, T/C", "setting": "second compound 0.0316 µM, first compound 0.00316 µM", "value": 83.7, "unit": "%"}, {"measurement": "viability, T/C", "setting": "second compound 0.0316 µM, first compound 0.01 µM", "value": 97.5, "unit": "%"}, {"measurement": "viability, T/C", "setting": "second compound 0.0316 µM, first compound 0.0316 µM", "value": 85.8, "unit": "%"}, {"measurement": "viability, T/C", "setting": "second compound 0.0316 µM, first compound 0.1 µM", "value": 74, "unit": "%"}, {"measurement": "viability, T/C", "setting": "second compound 0.0316 µM, first compound 0.316 µM", "value": 66, "unit": "%"}, {"measurement": "viability, T/C", "setting": "second compound 0.0316 µM, first compound 1 µM", "value": 57.7, "unit": "%"}, {"measurement": "viability, T/C", "setting": "second compound 0.1 µM, first compound 0.00316 µM", "value": 74.5, "unit": "%"}, {"measurement": "viability, T/C", "setting": "second compound 0.1 µM, first compound 0.01 µM", "value": 91.4, "unit": "%"}, {"measurement": "viability, T/C", "setting": "second compound 0.1 µM, first compound 0.0316 µM", "value": 68.9, "unit": "%"}, {"measurement": "viability, T/C", "setting": "second compound 0.1 µM, first compound 0.1 µM", "value": 58.2, "unit": "%"}, {"measurement": "viability, T/C", "setting": "second compound 0.1 µM, first compound 0.316 µM", "value": 62.6, "unit": "%"}, {"measurement": "viability, T/C", "setting": "second compound 0.1 µM, first compound 1 µM", "value": 50.2, "unit": "%"}, {"measurement": "viability, T/C", "setting": "second compound 0.316 µM, first compound 0.00316 µM", "value": 72.4, "unit": "%"}, {"measurement": "viability, T/C", "setting": "second compound 0.316 µM, first compound 0.01 µM", "value": 69.8, "unit": "%"}, {"measurement": "viability, T/C", "setting": "second compound 0.316 µM, first compound 0.0316 µM", "value": 47.7, "unit": "%"}, {"measurement": "viability, T/C", "setting": "second compound 0.316 µM, first compound 0.1 µM", "value": 56.5, "unit": "%"}, {"measurement": "viability, T/C", "setting": "second compound 0.316 µM, first compound 0.316 µM", "value": 42.2, "unit": "%"}, {"measurement": "viability, T/C", "setting": "second compound 0.316 µM, first compound 1 µM", "value": 40.2, "unit": "%"}, {"measurement": "viability, T/C", "setting": "second compound 1 µM, first compound 0.00316 µM", "value": 50.9, "unit": "%"}, {"measurement": "viability, T/C", "setting": "second compound 1 µM, first compound 0.01 µM", "value": 44.5, "unit": "%"}, {"measurement": "viability, T/C", "setting": "second compound 1 µM, first compound 0.0316 µM", "value": 34.1, "unit": "%"}, {"measurement": "viability, T/C", "setting": "second compound 1 µM, first compound 0.1 µM", "value": 35.9, "unit": "%"}, {"measurement": "viability, T/C", "setting": "second compound 1 µM, first compound 0.316 µM", "value": 33.8, "unit": "%"}, {"measurement": "viability, T/C", "setting": "second compound 1 µM, first compound 1 µM", "value": 31.6, "unit": "%"}, {"measurement": "viability, T/C", "setting": "second compound 3.16 µM, first compound 0.00316 µM", "value": 33.6, "unit": "%"}, {"measurement": "viability, T/C", "setting": "second compound 3.16 µM, first compound 0.01 µM", "value": 32.9, "unit": "%"}, {"measurement": "viability, T/C", "setting": "second compound 3.16 µM, first compound 0.0316 µM", "value": 27.6, "unit": "%"}, {"measurement": "viability, T/C", "setting": "second compound 3.16 µM, first compound 0.1 µM", "value": 23.7, "unit": "%"}, {"measurement": "viability, T/C", "setting": "second compound 3.16 µM, first compound 0.316 µM", "value": 26.4, "unit": "%"}, {"measurement": "viability, T/C", "setting": "second compound 3.16 µM, first compound 1 µM", "value": 22.4, "unit": "%"}, {"measurement": "viability, T/C", "setting": "second compound 10 µM, first compound 0.00316 µM", "value": 23.2, "unit": "%"}, {"measurement": "viability, T/C", "setting": "second compound 10 µM, first compound 0.01 µM", "value": 20.7, "unit": "%"}, {"measurement": "viability, T/C", "setting": "second compound 10 µM, first compound 0.0316 µM", "value": 22.2, "unit": "%"}, {"measurement": "viability, T/C", "setting": "second compound 10 µM, first compound 0.1 µM", "value": 22.1, "unit": "%"}, {"measurement": "viability, T/C", "setting": "second compound 10 µM, first compound 0.316 µM", "value": 19.9, "unit": "%"}, {"measurement": "viability, T/C", "setting": "second compound 10 µM, first compound 1 µM", "value": 19.6, "unit": "%"}]}]}
